{
  "source": "patent US6642211B2",
  "about": "(Wisconsin Alumni Research Foundation, priority 2001, dated 2003)",
  "origin": "cited, not measured here",
  "key": {"[1]": {"tested_on": "high grade gliomas and malignant melanoma"}, "[2]": {"tested_on": "human tumor xenografts, including malignant glioma", "conditions": "wide variety of human tumor xenografts"}, "[3]": {"tested_on": "recurrent malignant glioma"}, "[4]": {"conditions": "prolonged infusions of up to 30 days, patients with leukemia"}},
  "data": [
    {"smiles": "Cn1nnc2c(C(N)=O)ncn2c1=O", "note": "[Temozolamide]", "values": [
      {"measurement": "dose-limiting toxicity", "setting": "[1]; human, in vivo", "result": "related to myelosuppression"},
      {"measurement": "clinical efficacy", "setting": "[1]; treatment of high grade gliomas and malignant melanoma", "result": "demonstrated clinical efficacy"}
    ]},
    {"smiles": "Cc1cn([C@H]2C[C@H](O)[C@@H](CO)O2)c(=O)[nH]c1=O", "note": "[Thymidine]", "values": [
      {"measurement": "cell killing in vitro", "setting": "neoplastic cells", "result": "preferentially kills neoplastic cells"},
      {"measurement": "anti-cancer activity", "setting": "leukemia; [4]", "result": "anti-cancer activity"},
      {"measurement": "myelotoxicity", "setting": "leukemia; [4]", "result": "significant myelotoxicity"},
      {"measurement": "efficacy", "setting": "leukemia; shorter infusions of high dose thymidine", "result": "effective"},
      {"measurement": "tumor regression", "setting": "[2]", "result": "induces partial regression"},
      {"measurement": "protection against carboplatin myelotoxicity", "setting": "[3]; Phase I", "result": "protect against dose-limiting carboplatin myelotoxicity"},
      {"measurement": "effect on pharmacokinetics or protein binding of carboplatin", "setting": "[3]; thymidine-carboplatin interaction", "result": "not to affect"}
    ]}
  ]
}
